Source: publication PMC3118119, “Functional characterization of an alkaline exonuclease and single strand annealing protein from the SXT genetic element of Vibrio cholerae” (BMC Molecular Biology, 2011)
Counter-ions that a name gives are not always drawn. Like-named read-outs stand apart in the source and are kept apart here.

Columns and labels:
SXT-Exo (S066) = SXT-Exo (S066) (Vibrio cholerae, UniProt Q8KQV9); assay: quenched PicoGreen dsDNA exonuclease assay; format: biochemical
[1] = biological target: SXT-Exo alkaline exonuclease (S066) from the SXT genetic element of Vibrio cholerae (SXT integrating conjugative element of Vibrio cholerae) (UniProt Q79S39); assay: SEC; Superdex 200 HR 10/300 GL, 25 mM Tris-HCl pH7.4, 150 mM NaCl, 1 mM EDTA, 5 mM imidazole, 0.4 ml/min, 4°C; column calibrated with protein standards; oligomer size from the apparent molecular weight
Q79S39 = assay: as above
P03697 = assay: as above

SXT-Exo (S066), sequence (Q8KQV9 1-338 limits assumed): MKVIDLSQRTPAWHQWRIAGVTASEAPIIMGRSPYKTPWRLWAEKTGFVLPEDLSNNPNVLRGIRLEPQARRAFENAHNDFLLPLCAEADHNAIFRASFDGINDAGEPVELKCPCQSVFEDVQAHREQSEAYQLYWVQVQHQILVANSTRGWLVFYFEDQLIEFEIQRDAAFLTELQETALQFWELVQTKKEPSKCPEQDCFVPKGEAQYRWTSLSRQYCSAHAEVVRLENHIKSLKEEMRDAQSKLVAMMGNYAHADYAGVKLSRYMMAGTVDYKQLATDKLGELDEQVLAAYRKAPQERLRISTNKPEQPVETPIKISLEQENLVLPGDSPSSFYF

Work on `O=S(=O)(O)O` [potassium sulfate] yielded an IC50 (SXT-Exo (S066)) of about 35 mM.

For `O=P(O)(O)O` [sodium phosphate], the IC50 (SXT-Exo (S066); IC50) was 25 mM.

With `O=S(=O)(O)O` [sodium sulfate] the IC50 (SXT-Exo (S066); IC50) was about 20 mM.

With “SXT-Exo alkaline exonuclease (S066) from the SXT genetic element of Vibrio cholerae (from UniProt Q79S39 1-215) (enzyme)” the stoichiometry N [1] was 3.

B1: SXT-Exo alkaline exonuclease (S066) from the SXT genetic element of Vibrio cholerae (protein)
chain: MKTLSERLNHALQLTGVTQSELARRIGIKQQSISQICSGKSARSRYTMQIAEALRVNAHWLATGDGEIGLGVGNVEVGPDIKGRIPLINWVQAGDWTEIAEGFAHEDAEEWREVTGKAHEGCFALRVKGDSMENPSGKKSIPEGAVIVVDPELPYSSGSLVVARLDDSKEATFKQLVIDGEQKYLKPLNPQYPAIPINGNCTIIGVVRQAIIDFW
With B1 the “monomers per oligomer from the SEC apparent molecular weight” value (Q79S39) was “corresponded to ca. 3.5 SXT-Exo monomers”.

B2: lambda-Exo alkaline exonuclease from bacteriophage lambda (protein)
chain: MTPDIILQRTGIDVRAVEQGDDAWHKLRLGVITASEVHNVIAKPRSGKKWPDMKMSYFHTLLAEVCTGVAPEVNAKALAWGKQYENDARTLFEFTSGVNVTESPIIYRDESMRTACSPDGLCSDGNGLELKCPFTSRDFMKFRLGGFEAIKSAYMAQVQYSMWVTRKNAWYFANYDPRMKREGLHYVVIERDEKYMASFDEIVPEFIEKMDEALAEIGFVFGEQWR
For B2, the “monomers per oligomer from the SEC apparent molecular weight” value (P03697) was “corresponded to 3.35 protein monomers”.
